Test results: patent US20240132431A1, “METHOD FOR ALKYLATING ACIDIC FUNCTIONAL GROUP” (Chugai Seiyaku Kabushiki Kaisha, priority 2021, published 2024)
One block for each compound: values may come before it.

Target: T1, Bcl-2 protein (Recombinant Human Bcl-2 Protein) (Homo sapiens, UniProt P10415)
T1 construct: purchased Novus NBP2-34889
Test: Binding evaluation of mixture library compounds to Bcl-2 using AS-MS (affinity selection mass spectrometry)
Conditions: for ASMS ratio (%) n = 1 / ASMS ratio (%) n = 2: ASMS Ratio(%)=(A−C)/B×100; for ASMS ratio (%) n = 1: replicate n = 1; for ASMS ratio (%) n = 2: replicate n = 2
Summary of the method: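 Readout is ASMS Ratio (%), (A−C)/B×100, from reversed-phase LC/MS of SEC-passed extracts, with protein-free unfiltered standard (B) and protein-free SEC blank (C). Recombinant human Bcl-2 at 20 μM final met ~1200 pooled compounds at […] each for 1 h, 23° C., dark, in Tris-HCl pH 7.4 buffer.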

[1] = AS-MS on the mixture of 1200 library compounds
[2] = AS-MS, mixture of 1200 compounds, Bcl-2

T1 sequence (P10415 whole entry): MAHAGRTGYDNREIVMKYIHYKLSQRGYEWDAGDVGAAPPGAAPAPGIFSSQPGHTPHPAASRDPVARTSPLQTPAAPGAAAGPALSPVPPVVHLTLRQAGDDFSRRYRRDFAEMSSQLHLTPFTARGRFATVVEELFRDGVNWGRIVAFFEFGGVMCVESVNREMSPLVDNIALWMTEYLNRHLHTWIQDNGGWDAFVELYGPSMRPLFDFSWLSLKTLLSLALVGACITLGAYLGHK

ASMS ratio (%) (n = 1): 6.6%
ASMS ratio (%) (n = 2): −7.8%
Compound: CCOc1cccc(-c2ccc(CN3CCN(c4ccc(C(=O)NS(=O)(=O)c5ccc(NCCSc6ccccc6)c(C(F)(F)F)c5)cc4)CC3)cc2C)c1 [B2R047-01, 4-[4-[[4-(3-Ethoxyphenyl)-3-methylphenyl]methyl]piperazin-1-yl]-N-[4-(2-phenylsulfanylethylamino)-3-(trifluoromethyl)phenyl]sulfonylbenzamide]

ASMS ratio (%) n = 1 [1]: −2.2%
ASMS ratio (%) n = 2 [1]: 0.4%
Compound: CCOc1cncc(-c2ccc(C(=O)N3CCN(c4ccc(C(=O)N(CC)CC)nn4)CC3)cc2C)c1 [B4J004-01, 6-[4-[4-(5-Ethoxypyridin-3-yl)-3-methylbenzoyl]piperazin-1-yl]-N,N-diethylpyridazine-3-carboxamide]

ASMS ratio (%) (n = 1): 0.0%
ASMS ratio (%) (n = 2): −8.4%
Compound: CCOc1cncc(-c2ccc(CN3CCN(c4ccc(C(=O)NS(C)(=O)=O)nn4)CC3)cc2C)c1 [B2I074-01, 6-[4-[[4-(5-Ethoxypyridin-3-yl)-3-methylphenyl]methyl]piperazin-1-yl]-N-methylsulfonylpyridazine-3-carboxamide]

ASMS ratio (%) n = 1 [1]: 1.1%
ASMS ratio (%) n = 2 [1]: 1.3%
Compound: CCOc1cncc(C#Cc2ccccc2C(=O)N2CCN(c3ccc(C(=O)Nc4ccc(OC)cc4)nn3)CC2)c1 [B1O008-01, 6-[4-[2-[2-(5-Ethoxypyridin-3-yl)ethynyl]benzoyl]piperazin-1-yl]-N-(4-methoxyphenyl)pyridazine-3-carboxamide]

ASMS ratio (%) (n = 1): 0.0%
ASMS ratio (%) (n = 2): 0.0%
Compound: CCOc1cncc(-c2csc(C(=O)N3CCN(c4ccc(C(=O)NS(=O)(=O)CCC(F)(F)F)nn4)CC3)c2)c1 [B2N002-01, 6-[4-[4-(5-Ethoxypyridin-3-yl)thiophene-2-carbonyl]piperazin-1-yl]-N-(3,3,3-trifluoropropylsulfonyl)pyridazine-3-carboxamide]

Compound: CCOc1cccc(-c2ccc(CN3CCN(c4ccc(C(=O)NCC(F)(F)F)cc4)CC3)c(OC)c2)c1 [B1K053-01]
ASMS ratio (%) n = 1 [2]: −0.5%
ASMS ratio (%) n = 2 [2]: −3.3%

ASMS ratio (%) n = 1 [2]: −0.3%
ASMS ratio (%) n = 2 [2]: 0.0%
Compound: CCOc1cncc(-c2ccccc2CCC(=O)N2CCN(c3ccc(C(=O)NCC(F)(F)F)cc3)CC2)c1 [B1K034-01, 4-[4-[3-[2-(5-Ethoxypyridin-3-yl)phenyl]propanoyl]piperazin-1-yl]-N-(2,2,2-trifluoroethyl)benzamide]

ASMS ratio (%) n = 1 [2]: 0.0%
ASMS ratio (%) n = 2 [2]: 0.0%
Compound: CCOc1cncc(-c2csc(C(=O)N3CCN(c4ccc(C(=O)NCC(F)(F)F)cc4)CC3)c2)c1 [B1K024-01, 4-[4-[4-(5-Ethoxypyridin-3-yl)thiophene-2-carbonyl]piperazin-1-yl]-N-(2,2,2-trifluoroethyl)benzamide]

ASMS ratio (%) (n = 1): −1.4%
ASMS ratio (%) (n = 2): 0.1%
Compound: CCOc1cccc(-c2cnn(-c3cc(C(=O)N4CCN(c5ccc(C(=O)NS(=O)(=O)CCC(F)(F)F)cc5)CC4)cc(C(F)(F)F)c3)c2)c1 [B2N043-01, 4-[4-[3-[4-(3-Ethoxyphenyl)pyrazol-1-yl]-5-(trifluoromethyl)benzoyl]piperazin-1-yl]-N-(3,3,3-trifluoropropylsulfonyl)benzamide]

ASMS ratio (%) (n = 1): 0.0%
ASMS ratio (%) (n = 2): 0.0%
Compound: CCOc1cccc(-c2ccc(CN3CCN(c4ccc(C(=O)NS(=O)(=O)C(C)(C)C)cc4)CC3)cc2F)c1 [B2L051-01, N-tert-Butylsulfonyl-4-[4-[[4-(3-ethoxyphenyl)-3-fluorophenyl]methyl]piperazin-1-yl]benzamide]

ASMS ratio (%) (n = 1): 0.0%
ASMS ratio (%) (n = 2): 0.0%
Compound: CCOc1cccc(C#Cc2cncc(C(=O)N3CCN(c4ccc(C(=O)NS(=O)(=O)CCC(F)(F)F)cc4)CC3)c2)c1 [B2N031-01, 4-[4-[5-[2-(3-Ethoxyphenyl)ethynyl]pyridine-3-carbonyl]piperazin-1-yl]-N-(3,3,3-trifluoropropylsulfonyl)benzamide]

Compound: 6-[4-[[4-(3-Ethoxyphenyl)-2,6-dimethoxyphenyl]methyl]piperazin-1-yl]-N-propylpyridazine-3-carboxamide [B1M021-01]
ASMS ratio (%) n = 1 [2]: 0.0%
ASMS ratio (%) n = 2 [2]: 0.0%

ASMS ratio (%) (n = 1): 0.0%
ASMS ratio (%) (n = 2): 0.0%
Compound: CCOc1cncc(-c2cc(CN3CCN(c4ccc(C(=O)NS(=O)(=O)CCC(F)(F)F)cc4)CC3)cc(OC(C)C)c2)c1 [B2N058-01, 4-[4-[[3-(5-Ethoxypyridin-3-yl)-5-propan-2-yloxyphenyl]methyl]piperazin-1-yl]-N-(3,3,3-trifluoropropylsulfonyl)benzamide]

ASMS ratio (%) (n = 1): −1.2%
ASMS ratio (%) (n = 2): −1.9%
Compound: CCOc1cccc(-c2ccccc2CN2CCN(c3ccc(C(=O)NS(C)(=O)=O)nn3)CC2)c1 [B2I071-01, 6-[4-[[2-(3-Ethoxyphenyl)phenyl]methyl]piperazin-1-yl]-N-methylsulfonylpyridazine-3-carboxamide]

ASMS ratio (%) n = 1 [1]: −0.5%
ASMS ratio (%) n = 2 [1]: −1.7%
Compound: CCOc1cncc(-c2cc(C(=O)N3CCN(c4ccc(C(=O)N(CC)CC)nn4)CC3)cc(C(F)(F)F)c2)c1 [B4J018-01, 6-[4-[3-(5-Ethoxypyridin-3-yl)-5-(trifluoromethyl)benzoyl]piperazin-1-yl]-N,N-diethylpyridazine-3-carboxamide]

ASMS ratio (%) n = 1 [2]: 2.8%
ASMS ratio (%) n = 2 [2]: 2.0%
Compound: CCOc1cccc(-c2ccc(CN3CCN(c4ccc(C(=O)NCC(F)(F)F)cc4)CC3)cc2F)c1 [B1K051-01, 4-[4-[[4-(3-Ethoxyphenyl)-3-fluorophenyl]methyl]piperazin-1-yl]-N-(2,2,2-trifluoroethyl)benzamide]

ASMS ratio (%) n = 1 (AS-MS, mixture library, Bcl-2): 13.3%
ASMS ratio (%) n = 2 (AS-MS, mixture library, Bcl-2): −25.5%
Compound: CCOc1cccc(-c2cc(CN3CCN(c4ccc(C(=O)NS(=O)(=O)c5ccc(NCCSc6ccccc6)c([N+](=O)[O-])c5)cc4)CC3)cc(OC(F)(F)F)c2)c1 [B2Q063-01, 4-[4-[[3-(3-Ethoxyphenyl)-5-(trifluoromethoxy)phenyl]methyl]piperazin-1-yl]-N-[3-nitro-4-(2-phenylsulfanylethylamino)phenyl]sulfonylbenzamide]

ASMS ratio (%) n = 1 [1]: 4.5%
ASMS ratio (%) n = 2 [1]: 1.3%
Compound: CCOc1cccc(-c2ccc(CN3CCN(c4ccc(C(=O)Nc5ccc(OC)cc5)nn4)CC3)c(OC)c2)c1 [B1O079-01, 6-[4-[[4-(3-Ethoxyphenyl)-2-methoxyphenyl]methyl]piperazin-1-yl]-N-(4-methoxyphenyl)pyridazine-3-carboxamide]

ASMS ratio (%) n = 1 (AS-MS, mixture library, Bcl-2): 25.0%
ASMS ratio (%) n = 2 (AS-MS, mixture library, Bcl-2): 11.2%
Compound: CCOc1cccc(-c2ccccc2CN2CCN(c3ccc(C(=O)NS(=O)(=O)c4ccc(NCCSc5ccccc5)c([N+](=O)[O-])c4)nn3)CC2)c1 [B2Q071-01, 6-[4-[[2-(3-Ethoxyphenyl)phenyl]methyl]piperazin-1-yl]-N-[3-nitro-4-(2-phenylsulfanylethylamino)phenyl]sulfonylpyridazine-3-carboxamide]

ASMS ratio (%) n = 1 [1]: 2.4%
ASMS ratio (%) n = 2 [1]: 1.7%
Compound: CCOc1cccc(-c2csc(C(=O)N3CCN(c4ccc(C(=O)N(C)CC56CC7CC(CC(C7)C5)C6)cc4)CC3)c2)c1 [B3A023-01, N-(1-Adamantylmethyl)-4-[4-[4-(3-ethoxyphenyl)thiophene-2-carbonyl]piperazin-1-yl]-N-methylbenzamide]

Compound: 6-[4-[3-[2-(5-Ethoxypyridin-3-yl)phenyl]propanoyl]piperazin-1-yl]-N-propylpyridazine-3-carboxamide [B1M077-01]
ASMS ratio (%) n = 1 [2]: −0.7%
ASMS ratio (%) n = 2 [2]: 3.1%

ASMS ratio (%) (n = 1): 0.0%
Compound: CCOc1cncc(-c2ccc(CN3CCN(c4ccc(C(=O)NS(=O)(=O)CCC(F)(F)F)cc4)CC3)c(CC)c2)c1 [B2N050-01, 4-[4-[[4-(5-Ethoxypyridin-3-yl)-2-ethylphenyl]methyl]piperazin-1-yl]-N-(3,3,3-trifluoropropylsulfonyl)benzamide]

ASMS ratio (%) n = 1 [1]: 1.8%
ASMS ratio (%) n = 2 [1]: 0.3%
Compound: CCOc1cncc(-c2cnn(-c3cc(C(=O)N4CCN(c5ccc(C(=O)N(CC)CC)cc5)CC4)cc(C(F)(F)F)c3)c2)c1 [B4J044-01, 4-[4-[3-[4-(5-Ethoxypyridin-3-yl)pyrazol-1-yl]-5-(trifluoromethyl)benzoyl]piperazin-1-yl]-N,N-diethylbenzamide]

ASMS ratio (%) n = 2 [1]: 390.0%
Compound: CCOc1cccc(-c2cc(CN3CCN(c4ccc(C(=O)N(C)CC56CC7CC(CC(C7)C5)C6)cc4)CC3)cc(OC(F)(F)F)c2)c1 [B3A063-01, N-(1-Adamantylmethyl)-4-[4-[[3-(3-ethoxyphenyl)-5-(trifluoromethoxy)phenyl]methyl]piperazin-1-yl]-N-methylbenzamide]

ASMS ratio (%) n = 1 (AS-MS, mixture library, Bcl-2): 0.0%
ASMS ratio (%) n = 2 (AS-MS, mixture library, Bcl-2): −0.3%
Compound: CCOc1cncc(-c2cc(CN3CCN(c4ccc(C(=O)NS(=O)(=O)CC56CC7CC(CC(C7)C5)C6)cc4)CC3)cc(OC(F)(F)F)c2)c1 [B2A064-01, N-(1-Adamantylmethylsulfonyl)-4-[4-[[3-(5-ethoxypyridin-3-yl)-5-(trifluoromethoxy)phenyl]methyl]piperazin-1-yl]benzamide]

ASMS ratio (%) (n = 1): 0.0%
ASMS ratio (%) (n = 2): 0.0%
Compound: CCOc1cncc(-c2csc(C(=O)N3CCN(c4ccc(C(=O)NS(=O)(=O)C(C)(C)C)nn4)CC3)c2)c1 [B2L002-01, N-tert-Butylsulfonyl-6-[4-[4-(5-ethoxypyridin-3-yl)thiophene-2-carbonyl]piperazin-1-yl]pyridazine-3-carboxamide]
